Source: patent US20200345633A1, “Pharmaceutical Compositions for Controlling and/or Reducing the Progression of Myopia” (Brien Holden Vision Institute Limited, priority 2017, published 2020)
Like-named read-outs stand apart in the source and are kept apart here.

Legend:
myopia [1] = conditions: cited from earlier work
primate eyes = assay: Choroidal thickness via Ocular Coherence Tomography (OCT) after eye drops in primate eyes; conditions: atropine at 0.1 wt. % concentration; data not shown
myopia [2] = conditions: oral administration, young myopic children, one year; cited from earlier work
human eye = conditions: concentration of 1 wt. %; cited from earlier work
accommodation = conditions: systemic intake; cited from earlier work

CN1[C@@H]2CC[C@H]1C[C@@H](OC(=O)C(CO)c1ccccc1)C2 (stereo partly drawn) [atropine]
effect on accommodative amplitude (myopia [1]; 0.01 wt. %): not significant | pupil size increase (myopia [1]; 0.01 wt. %): minimal | adverse effects (myopia [1]; concentrations of 1% and 0.5%): significant short term adverse effects | progression of myopia (myopia [1]; initially used in concentrations of approximately 1%): slow the progression of myopia | axial length elongation (myopia [1]; low dose, 0.01 wt %): not effective in reducing axial length elongation | side effects (myopia [1]; low-concentration topical, 0.01 wt. %): not induce side effects | adverse effects (primate eyes): adverse effects result

Cn1cnc2[nH]c(=O)[nH]c(=O)c21 [7-methylxanthine]
axial eye growth (myopia [2]): retards axial eye growth | progression of myopia (myopia [2]): slowing of the progression of myopia | side effects (myopia [2]): without significant side effects

Cn1c(=O)c2c(ncn2C)n(C)c1=O [caffeine]
safety of topical use (human eye): safely been used topically | accommodation (accommodation): enhances accommodation
